Data taken from patent US9567345B2, “Pharmaceutically active pyrazolo-triazine derivatives” (LEAD DISCOVERY CENTER GMBH, priority 2012, dated 2017).
Like-named read-outs stand apart in the source and are kept apart here.

Experiments:
Type in all cases: biochemical
CDK9/Cyclin T1 = CDK9/Cyclin T1 (Homo sapiens, UniProt P50750); test: CDK9 Enzymatic Activity Assay (Lance Kinase Activity Assay, FRET)
Outline: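 CDK9/cyclin T1 phosphorylation of a ULight-MBP peptide was run for 1 h at room temperature in pH 7.5 HEPES buffer with MgCl2, EGTA, DTT and Tween-20. It was followed by 1 h with Eu-anti-phospho-MBP antibody (4 nM) in EDTA detection buffer. TR-FRET loss gave IC50 from 8-point, 1:3 sigmoidal dose-response curves.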

CDK2/CycA = biological target: T1, CDK2/CycA (Homo sapiens, UniProt P24941); test: CDK2 Enzymatic Activity Assay (Lance Kinase Activity Assay, FRET)
T1 construct: purchased Proqinase
Outline: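 Compounds in an 8-step, 1:3 dilution series were incubated 1 h at room temperature with CDK2/CycA, ULight-MBP substrate and ATP in pH 7.5 HEPES buffer.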

CDK7/CycH/Mat1 = CDK7/CycH/Mat1 (Homo sapiens, UniProt P50613); test: CDK7 Enzymatic Activity Assay (Lance Kinase Activity Assay, FRET)
Outline: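 TR-FRET (LANCE) kinase assay: CDK7/CycH/Mat1 phosphorylates Ulight-MBP substrate for 1 h at room temperature in pH 7.5 HEPES buffer; detection 1 h with Eu-labelled anti-phospho antibody plus EDTA.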

[1] = Table 5B, class symbols per IC50 [nM] ranges of b581, read-out: CDK9: Selectivity of CDK7 inhibition over CDK9 inhibition
[2] = Table 5B, class symbols per IC50 [nM] ranges of b581, read-out: CDK2: Selectivity of CDK7 inhibition over CDK2 inhibition
[3] = CDK7/CycH/Mat1, 25 μM ATP final, class ranges, read-out: CDK7: IC50 [nM] for CDK7 inhibition

Chain of CDK7/CycH/Mat1 (P50613 whole entry): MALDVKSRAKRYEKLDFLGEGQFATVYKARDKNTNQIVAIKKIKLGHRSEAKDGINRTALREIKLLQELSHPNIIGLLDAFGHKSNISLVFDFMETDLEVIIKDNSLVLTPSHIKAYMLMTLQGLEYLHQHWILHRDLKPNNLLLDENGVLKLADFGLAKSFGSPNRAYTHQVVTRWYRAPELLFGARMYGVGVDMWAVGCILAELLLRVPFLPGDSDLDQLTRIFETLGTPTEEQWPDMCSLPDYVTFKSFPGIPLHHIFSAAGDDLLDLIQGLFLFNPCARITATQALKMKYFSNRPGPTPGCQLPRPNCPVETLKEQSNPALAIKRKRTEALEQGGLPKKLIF
Chain of CDK9/Cyclin T1 (P50750 whole entry): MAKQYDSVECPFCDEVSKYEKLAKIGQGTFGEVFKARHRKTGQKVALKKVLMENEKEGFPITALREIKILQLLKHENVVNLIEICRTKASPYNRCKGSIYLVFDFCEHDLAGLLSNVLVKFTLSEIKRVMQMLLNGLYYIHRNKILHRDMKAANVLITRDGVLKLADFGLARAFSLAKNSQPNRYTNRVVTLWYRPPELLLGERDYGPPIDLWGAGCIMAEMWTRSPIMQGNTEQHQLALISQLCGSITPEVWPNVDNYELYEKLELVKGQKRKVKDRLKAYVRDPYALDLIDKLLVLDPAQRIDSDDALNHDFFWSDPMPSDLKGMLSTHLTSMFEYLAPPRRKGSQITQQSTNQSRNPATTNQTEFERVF
Chain of CDK9/Cyclin T1 (O60563 whole entry partner): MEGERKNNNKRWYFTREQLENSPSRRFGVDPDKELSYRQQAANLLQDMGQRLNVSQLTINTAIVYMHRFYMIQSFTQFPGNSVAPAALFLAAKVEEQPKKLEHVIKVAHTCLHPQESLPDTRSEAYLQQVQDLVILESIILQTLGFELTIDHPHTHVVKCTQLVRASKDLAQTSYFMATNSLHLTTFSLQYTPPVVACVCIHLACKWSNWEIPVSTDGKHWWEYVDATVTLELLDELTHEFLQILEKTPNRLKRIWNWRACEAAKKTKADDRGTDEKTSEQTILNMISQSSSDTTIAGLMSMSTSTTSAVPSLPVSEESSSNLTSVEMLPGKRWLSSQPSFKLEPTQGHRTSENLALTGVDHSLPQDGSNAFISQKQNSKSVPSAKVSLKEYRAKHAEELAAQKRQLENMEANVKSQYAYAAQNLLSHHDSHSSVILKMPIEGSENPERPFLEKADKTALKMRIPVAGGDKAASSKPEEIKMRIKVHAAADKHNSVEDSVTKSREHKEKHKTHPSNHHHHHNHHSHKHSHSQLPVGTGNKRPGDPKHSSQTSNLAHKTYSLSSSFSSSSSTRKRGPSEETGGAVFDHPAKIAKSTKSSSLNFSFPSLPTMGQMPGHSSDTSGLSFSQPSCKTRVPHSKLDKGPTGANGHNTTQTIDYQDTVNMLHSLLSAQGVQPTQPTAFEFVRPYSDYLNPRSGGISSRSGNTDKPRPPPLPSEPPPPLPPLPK

SMILES | IC50 (CDK9/Cyclin T1; [1]) [nM] | IC50 (CDK2/CycA; [2]) [nM] | IC50 (CDK7/CycH/Mat1; [3]) [nM] | Selectivity CDK7 over CDK9 (CDK9/Cyclin T1; Table 7) [fold] | IC50 (CDK9/Cyclin T1; Table 7, read-out: IC50 CDK9) [nM] | Selectivity CDK7 over CDK2 (CDK2/CycA; Table 7) [fold] | IC50 (CDK2/CycA; Table 7, read-out: IC50 CDK2) [nM] | IC50 (CDK7/CycH/Mat1; Table 7, read-out: IC50 CDK7) [nM]
CC(C)c1cnn2c(NCc3ccccc3N3CCCC3=O)nc(O[C@@H]3CCCNC3)nc12 [(VII-39), (R)-1-(2-(((8-isopropyl-2-(piperidin-3-yloxy)pyrazolo[1,5-a][1,3,5]triazin-4-yl)amino)methyl)phenyl)pyrrolidin-2-one] | > 2500 | 50 to 500 | < 5 |  |  |  |  | 
COc1ccccc1[C@H](C)Nc1nc(O[C@@H]2CCNC2)nc2c(C(C)C)cnn12 [(VII-11), 8-isopropyl-N-((S)-1-(2-methoxyphenyl)ethyl)-2-((R)-pyrrolidin-3-yloxy)pyrazolo[1,5-a][1,3,5]triazin-4-amine] | 500 to 2500 | 500 to 2500 | 5 to 10 |  |  |  |  | 
CC(C)c1cnn2c(NCc3ccccc3-n3cccn3)nc(NCCN3CCOCC3)nc12 [(VIII-046), N4-(2-(1H-pyrazol-1-yl)benzyl)-8-isopropyl-N2-(2-morpholinoethyl)pyrazolo[1,5-a][1,3,5]triazine-2,4-diamine] | > 2500 | > 2500 | > 25 |  |  |  |  | 
Cc1ccc(CNc2nc(O[C@@H]3CCCNC3)nc3c(C(C)C)cnn23)c(OC2CCOC2)c1 (stereo partly drawn) [(VII-093), 8-isopropyl-N-(4-methyl-2-((tetrahydrofuran-3-yl)oxy)benzyl)-2-((R)-piperidin-3-yloxy)pyrazolo[1,5-a][1,3,5]triazin-4-amine] | > 2500 | > 2500 | > 25 |  |  |  |  | 
CC(C)c1cnn2c(NCc3ccccc3S(=O)(=O)N(C)C)nc(O[C@@H]3CCCNC3)nc12 [(VII-38), (R)-2-(((8-isopropyl-2-(piperidin-3-yloxy)pyrazolo[1,5-a][1,3,5]triazin-4-yl)amino)methyl)-N,N-dimethylbenzenesulfonamide] | 500 to 2500 | 50 to 500 | < 5 | 2733 | 500 to 2500 | 342 | 50 to 500 | < 5
CC(C)c1cnn2c(NCc3ccccc3OC3CCCC3)nc(O[C@@H]3CCCNC3)nc12 [(VII-095), (R)-N-(2-(cyclopentyloxy)benzyl)-8-isopropyl-2-(piperidin-3-yloxy)pyrazolo[1,5-a][1,3,5]triazin-4-amine] | > 2500 | > 2500 | > 25 |  |  |  |  | 
CNC(=O)c1ccccc1CNc1nc(O[C@@H]2CCCNC2)nc2c(C(C)C)cnn12 [(VII-108), (R)-2-(((8-isopropyl-2-(piperidin-3-yloxy)pyrazolo[1,5-a][1,3,5]triazin-4-yl)amino)methyl)-N-methylbenzamide] | > 2500 | 50 to 500 | < 5 |  |  |  |  | 
CC(C)c1cnn2c(NCc3ccccc3-c3ccccc3)nc(OC3CCNCC3)nc12 [(VII-09), N-([1,1′-biphenyl]-2-ylmethyl)-8-isopropyl-2-(piperidin-4-yloxy)pyrazolo[1,5-a][1,3,5]triazin-4-amine] | > 2500 | > 2500 | < 5 |  |  |  |  | 
